Results published in patent US20090221664A1, “PHARMACEUTICAL COMPOSITIONS OF MUSCARINIC RECEPTOR ANTAGONISTS” (priority 2005, published 2009).

Tested on: carbachol precontracted guinea-pig isolated trachea
Assay: In-vitro functional assay: relaxation of carbachol precontracted guinea-pig isolated trachea by PDE-IV inhibitors with or without MRA preincubation
Settings: for Potentiation of relaxant activity by preincubation with C No. 66: C No. 66 at 1 nM before contraction with carbachol
Method: Guinea Pigs (400-600 gm) were procured and trachea was removed under anesthesia (sodium pentobarbital, 300 mg/kg i.p) and immediately kept in ice-cold Krebs Henseleit buffer. Indomethacin (10 uM) was present throughout the KH buffer to prevent the formation of bronchoactive prostanoids.
The tissue of adherent fascia was removed and cut into strips of equal size (with approx. 4-5 tracheal rings in each strip). The epithelium was removed by careful rubbing, minimizing damage to the smooth muscle. […] Opposite ends of the cut rings were tied with the help of a thread. The tissue was mounted in isolated tissue baths containing 10 ml Krebs Henseleit buffer maintained at 37° C. and bubbled with carbogen, at a basal tension of 1 gm. The buffer was changed 4-5 times for about an hour. Equilibration of the tissue was done for 1 hr for stabilization. After 1 hr, the tissue was challenged with 1 μM carbachol. This was repeated after every 2-3 washes till two similar consecutive responses were obtained. At the end of stabilization, the tissues were incubated with suboptimal dose of MRA/Vehicle for 20 minutes prior to contraction of the tissues with 1 μM carbachol. The relaxant activity of the PDE-IV inhibitor [10^−9M to 10^−4 M] on the stabilized developed tension/response was subsequently assessed. The contractile response of tissues was recorded either on Powerlab data acquisition system or on Grass polygraph (Model 7). The relaxation was expressed as percentage of maximum carbachol response and EC25 was calculated as the concentration producing 25% of the maximum relaxation to 1 μM carbachol. The percent relaxation between the treated and control tissues were compared using non-parametric unpaired t-test. A p value of <0.05 is considered to be statistically significant.

[1] = PDE-IV inhibitor alone, concentration producing 25% of the maximum relaxation to 1 μM carbachol
[2] = relaxation by the PDE-IV inhibitor in the presence of C No. 66 (1 nM preincubation), 1 μM carbachol

Row | SMILES | Potentiation of relaxant activity by preincubation with C No. 66 | - Log[EC25] [1] | EC25 [1] [µM] | - Log[EC25] [2]
1 | O=C(Nc1c(Cl)cncc1Cl)c1ccc(OC(F)F)c(OCC2CC2)c1 [Roflumilast] | potentiated | 4.46 | 44.2 | 6.25
2 | COc1ccc(C2=NO[C@]3(CCOC3)C2)cc1OC1CCCC1 [Compound No. 124aa, (S)-3-[3-(cyclopentyloxy)-4-methoxyphenyl]-1,7-dioxa-2-azaspiro[4.4]non-2-ene] | potentiated | 4.40 | 41.8 | 5.53
3 | COc1ccc(C2CNC(=O)C2)cc1OC1CCCC1 (centres unmarked) [Rolipram] | no significant potentiation | 5.25 | 7.6 | 
